Laboratory results taken from US6177474A, “Polyhydroxyphenol derivatives and preventive and therapeutic agents for bone and cartilage diseases containing the same” (Hoechst Marion Roussel, priority 1996, dated 2001).

System: bone cells containing osteoclast cells
Assay: Pit formation assay: inhibition of osteolysis (absorption pits on ivory slices)
Type: cell-based, ICR mice
Conditions: 72 h; for No. of absorption pits (Mean ± SD): 10 µM; for inhibition at 10 µM: Mus musculus, Osteoclast, compound 10^-5 M, 0% = pits with rPTH (1×10^-8 M) without medicine, 100% = no absorption pit, read-out: Ratio of inhibition (%)
Description: ICR mice 11-12 days old (purchased from Charles River Japan) were euthanized by anesthesia with ether and immediately immersed in 70% ethanol for disinfection. By the use of ophthalmologist scissors and pincers sterilized in advance with ethanol, femur and tibia were excised from the sacrificed mice and chopped into small pieces in an α-MEM culture medium (purchased from Flow Laboratories Corp.). containing 5% FBS (purchased from Irvine Scientific Corp.), 100 U/ml penicillin and 100 μg/ml streptomycin. The supernatant formed consequently was recovered by pipeting, cleaned with the culture broth, and suspended in a 5% FBS α-MEM culture broth to obtain bone cells containing osteoclast cells. The supernatant of a bone cell-floating liquid formed after 3 minutes' standing of the bone cells at rest was recovered and passed through a mesh (cell strainer, 70 μm, purchased from Falcon Corp.). The filtrate was adjusted to a cell concentration of 1×10^7 /ml and used for the pit formation assay.
An ivory piece was cut into slices, 150 μm in thickness, by the use of a precision low-speed cutting machine (purchased from Buehler Corp.). Cylindrical holes, 6 mm in diameter, were perforated in the slices by the use of a one-hole punch. The ivory slices were immersed in 70% ethanol and subjected therein to an ultrasonic cleaning treatment twice each for five minutes and washed three times with a sterilized PBS and twice with the culture medium. The ivory slices were set in place on a 96-hole culture plate (purchased from Falcon Corp.). The perforated ivory slices on the culture plate, with a culture broth containing a given compound of the present invention prepared in a concentration of 2×10^-5 M added in a fixed volume of 100 μl (final medicine concentration 1×10^-5 M) to each of the holes and a culture broth containing prepared bone cells in a concentration of 1×10^7 /ml placed in each of the holes, were cultured for three days in a 10% CO2 incubator at 37° C. After the culture, the ivory slices were placed in an aqueous 2 N sodium hydroxide and the cells on the slices were removed by the use of a rubber spatula. The ivory slices were washed with water and methanol. The absorption pits formed in the ivory slices were dyed with Coomassie Brilliant Blue and were counted under a microscope. Though the numbers of absorption pits were naturally found to disperse among test lots, depending on the ratios of varying specie s of cells in the bone cell suspensions and the lots of animals used, satisfactorily uniform test results were found in one and the same test lot. The ratio of inhibition of osteolysis was calculated on the 100% scale, in which 0% stands for the number of absorption pits found in the culture broth in the presence of rPTH (1×10^-8 M) and in the absence of a medicine and 100% for total absence of absorption pit.
The test described above was performed in a total of ten runs, Tests 1-10.
In the columns titled "Added medicine No." found in Table 2 and Table 3, the symbol (-) denotes a control involving no addition of medicine and the numerical No. denotes the No. of the compound mentioned above.

Row | SMILES | No. of absorption pits (Mean ± SD) | inhibition at 10 µM [%]
1 | CC(C)CCCC(C)CC(=O)c1c(O)cc(O)cc1O (centres unmarked) [Compound 6, (2,6-dimethylheptyl) (2,4,6-trihydroxyphenyl) ketone] | 63.4 ± 12.4 | 61.4
2 | CC(C)=CCC1(CC=C(C)C)C(=O)C(C(=O)C(C)C)=C(O)C=C1O [Compound 13, 2,2-bis(3-methyl-2-butenyl)-3,5-dihydroxy-6-(2-methyl-1-oxopropyl)cyclohexa-3,5-dienone] | 16.8 ± 3.6 | 79
3 | CC(C)=CCc1c(O)cc(O)c(C(=O)C(C)C)c1O [Compound 14, {3-(3-methyl-2-butenyl)-2,4,6-trihydroxyphenyl} (2-propyl) ketone] | 26.0 ± 2.6 | 67.5
4 | CC(C)=CCc1c(O)c(CC=C(C)C)c(O)c(C(=O)CC(C)C)c1O [Compound 15, {3,5-bis(3-methyl-2-butenyl)-2,4,6-trihydroxyphenyl} (2-methylpropyl) ketone] | 8.3 ± 2.4 | 89.6
5 | CC(C)=CCC1=C(O)C(CC=C(C)C)(CC=C(C)C)C(=O)C(C(=O)CC(C)C)=C1O [Compound 16, 3,5-dihydroxy-6-(3-methyl-1-oxobutyl)-2,2,4-tris(3-methyl-2-butenyl)cyclohexa-3,5-dienone] | 0 | 100
6 | CC(C)=CCCC(C)=CCc1c(O)c(CC=C(C)CCC=C(C)C)c(O)c(C(=O)CC(C)C)c1O [Compound 19, {3,5-bis(3,7-dimethyl-2,6-octadienyl)-2,4,6-trihydroxyphenyl} (2-methylpropyl) ketone] | 55.3 ± 6.1 | 70.5
7 | CC(C)=CCCC(C)=CCC1=C(O)C(CC=C(C)CCC=C(C)C)(CC=C(C)CCC=C(C)C)C(=O)C(C(=O)CC(C)C)=C1O (centres unmarked) [Compound 20, 3,5-dihydroxy-6-(3-methyl-1-oxobutyl)-2,2,4-tris(3,7-dimethyl-2,6-octadienyl)cyclohexa-3,5-dienone] | 3.0 ± 1.3 | 98.4
8 | CC(C)=CCCC(C)=CCC1(CC=C(C)CCC=C(C)C)C(=O)C(C(=O)CC(C)C)=C(O)C=C1O (centres unmarked) [Compound 21, 2,2-bis(3,7-dimethyl-2,6-octadienyl)-3,5-dihydroxy-6-(3-methyl-1-oxobutyl)cyclohexa-3,5-dienone] | 3.5 ± 1.4 | 98.1
9 | CC(C)=CCC1=C(O)C(CC=C(C)C)(CC=C(C)C)C(=O)C(C(=O)CC(C)CCCC(C)C)=C1O (centres unmarked) [Compound 22, 3,5-dihydroxy-6-(3,7-dimethyl-1-oxooctyl)-2,2,4-tris(3-methyl-2-butenyl)cyclohexa-3,5-dienone] | 3.5 ± 1.1 | 98.1
10 | CC(C)=CCC1(CC=C(C)C)C(=O)C(C(=O)CC(C)CCCC(C)C)=C(O)C=C1O (centres unmarked) [Compound 24, 2,2-bis(3-methyl-2-butenyl)-3,5-dihydroxy-6-(3,7-dimethyl-1-oxooctyl)cyclohexa-3,5-dienone] | 39.3 ± 13.9 | 75.8
11 | CC(C)=CCc1c(O)c(O)c(CC=C(C)C)c(C(=O)CC(C)C)c1O [Compound 25, {3,6-bis(3-methyl-2-butenyl)-2,4,5-trihydroxyphenyl} (2-methylpropyl) ketone] | 0 | 100
12 | CC(C)=CCc1c(O)c(O)cc(C(=O)CC(C)C)c1O [Compound 26, {3-(3-methyl-2-butenyl)-2,4,5-trihydroxyphenyl} (2-methylpropyl) ketone] | 29.3 ± 4.8 | 85.5
13 | CC(C)=CCC1=C(O)C(O)(CC=C(C)C)C(=O)C(C(=O)C(C)C)=C1O (centres unmarked) [Compound 29, 2,4-bis(3-methyl-2-butenyl)-6-(2-methyl-1-oxopropyl)-2,3,5-trihydroxycyclohexa-3,5-dienone] | 20.3 ± 2.1 | 79.5
14 | CC(=O)C1=C(O)C(CC=C(C)C)=C(O)C(O)(CC=C(C)C)C1=O (centres unmarked) [Compound 30, 2,4-bis(3-methyl-2-butenyl)-6-(1-oxoethyl)-2,3,5-trihydroxycyclohexa-3,5-dienone] | 21.4 ± 3.9 | 78.2
15 | CC(C)=CCC1=C(O)C(O)(CC=C(C)C)C(=O)C(C(=O)c2ccccc2)=C1O (centres unmarked) [Compound 32, 2,4-bis(3-methyl-2-butenyl)-6-benzoyl-2,3,5-trihydroxycyclohexa-3,5-dienone] | 33.9 ± 4.1 | 65.7
16 | CC(C)CC(=O)C1=C(O)C(Cc2ccccc2)=C(O)C(O)(Cc2ccccc2)C1=O (centres unmarked) [Compound 33, 2,4-bisbenzyl-6-(3-methyl-1-oxobutyl)-2,3,5-trihydroxycyclohexa-3,5-dienone] | 9.8 ± 1.8 | 95.1
17 | CC(C)CC(=O)c1c(O)c(Cc2ccccc2)c(O)c(Cc2ccccc2)c1O [Compound 34, {3,5-bisbenzyl-2,4,6-trihydroxyphenyl} (2-methylpropyl) ketone] | 8.2 ± 1.9 | 95.9
18 | CC(C)CC(=O)C1=C(O)C(Cc2ccccc2)=C(O)C(Cc2ccccc2)(Cc2ccccc2)C1=O [Compound 36, 2,2,4-trisbenzyl-6-(3-methyl-1-oxobutyl)-3,5-dihydroxycyclohexa-3,5-dienone] | 3.8 ± 0.9 | 98.1
19 | CC(C)CCc1c(O)c(CCC(C)C)c(O)c(C(=O)CC(C)C)c1O [Compound 37, {3,5-bis(3-methylbutyl)-2,4,6-trihydroxyphenyl} (2-methylpropyl) ketone] | 14.4 ± 4.9 | 91.1
20 | O=C(Cc1ccccc1)c1c(O)cc(O)cc1O [Compound 38, (phenylmethyl) (2,4,6-trihydroxyphenyl) ketone] | 55.8 ± 7.7 | 57.9
21 | CC(C)=CCc1c(O)c(CC=C(C)C)c(O)c(C(=O)Cc2ccccc2)c1O [Compound 39, {3,5-bis(3-methyl-2-butenyl)-2,4,6-trihydroxyphenyl} (phenylmethyl) ketone] | 49.2 ± 9.4 | 72.6
22 | CC(C)=CCC1=C(O)C(CC=C(C)C)(CC=C(C)C)C(=O)C(C(=O)Cc2ccccc2)=C1O [Compound 40, 3,5-dihydroxy-6-(phenylacetyl)-2,2,4-tris(3-methyl-2-butenyl)-cyclohexa-3,5-dienone] | 4.9 ± 3.8 | 96.1
23 | CC(C)=CCC1(CC=C(C)C)C(=O)C(C(=O)Cc2ccccc2)=C(O)C=C1O [Compound 41, 3,5-dihydroxy-6-(phenylacetyl)-2,2-bis(3-methyl-2-butenyl)cyclohexa-3,5-dienone] | 3.2 ± 0.7 | 97.4
24 | CC(C)=CCc1c(O)cc(O)c(C(=O)Cc2ccccc2)c1O [Compound 42, {3-(3-methyl-2-butenyl)-2,4,6-trihydroxyphenyl} (phenylmethyl) ketone] | 31.7 ± 3.6 | 74.7
25 | CC(C)=CCCC(C)=CCc1c(O)c(CC=C(C)CCC=C(C)C)c(O)c(C(=O)Cc2ccccc2)c1O [Compound 43, {3,5-bis(3,7-dimethyl-2,6-octadienyl)-2,4,6-trihydroxyphenyl} (phenylmethyl) ketone] | 11.3 ± 2.5 | 95
26 | CC(C)=CCCC(C)=CCC1=C(O)C(CC=C(C)CCC=C(C)C)(CC=C(C)CCC=C(C)C)C(=O)C(C(=O)Cc2ccccc2)=C1O (centres unmarked) [Compound 44, 3,5-dihydroxy-6-(phenylacetyl)-2,2,4-tris(3,7-dimethyl-2,6-octadienyl)cyclohexa-3,5-dienone] | 7.7 ± 2.0 | 96.6
27 | CC(C)=CCCC(C)=CCC1(CC=C(C)CCC=C(C)C)C(=O)C(C(=O)Cc2ccccc2)=C(O)C=C1O (centres unmarked) [Compound 45, 3,5-dihydroxy-6-(phenylacetyl)-2,2-bis(3,7-dimethyl-2,6-octadienyl)cyclohexa-3,5-dienone] | 8.2 ± 1.8 | 96.4
28 | CC(C)=CCCC(C)=CCc1c(O)cc(O)c(C(=O)Cc2ccccc2)c1O [Compound 46, {3-(3,7-dimethyl-2,6-octadienyl)-2,4,6-trihydroxyphenyl} (phenylmethyl) ketone] | 125.3 ± 12.6 | 44.3
